# Assay results as given in US7015177B2, “Solid formulation” (priority 2001, dated 2006).
# How the values were obtained:
# [1] = Solubility of agrochemical in solvent or melt; type: physicochemical; details: melt at about 65 to 70° C.
# [2] = Thermal degradation of agrochemical; type: physicochemical
structure (smiles),measurement,setting,value
CN1COCN(Cc2cnc(Cl)s2)/C1=N\[N+](=O)[O-] [thiamethoxam],solubility in melt of polyethylene glycol and methyl oleate,[1],readily soluble
CC1(C)[C@H](C(=O)O[C@H](C#N)c2cccc(Oc3ccccc3)c2)[C@@H]1/C=C(\Cl)C(F)(F)F (racemic) [lambda cyhalothrin],temperature above which it tends to degrade,[2],> 100 °C
CCCCCCCCCCCCCCCCCC(=O)O [stearic acid],retardation of germination,seeds,no significant retardation of germination
